# Reference: US9144594B2, “Cathepsin L mediated diseases and associated methods and products” (University of Miami, priority 2005, dated 2015)
# Entries after “also recorded” stand apart in the source; their conditions may differ. Where a SMILES comes first, the peptide text is derived from it. The star is where a group is joined. Cbz = O=C(OCc1ccccc1)*; CH2F = FC*
# B1: dynI690K: dynamin mutant with defective higher order assembly of tetramers (protein)
# chain: MGNRGMEDLIPLVNRLQDAFSAIGQNADLDLPQIAVVGGQSAGKSSVLENFVGRDFLPRGSGIVTRRPLVLQLVNATTEYAEFLHCKGKKFTDFEEVRLEIEAETDRVTGTNKGISPVPINLRVYSPHVLNLTLVDLPGMTKVPVGDQPPDIEFQIRDMLMQFVTKENCLILAVSPANSDLANSDALKVAKEVDPQGQRTIGVITKLDLMDEGTDARDVLENKLLPLRRGYIGVVNRSQKDIDGKKDITAALAAERKFFLSHPSYRHLADRMGTPYLQKVLNQQLTNHIRDTLPGLRNKLQSQLLSIEKEVEEYKNFRPDDPARKTKALLQMVQQFAVDFEKRIEGSGDQIDTYELSGGARINRIFHERFPFELVKMEFDEKELRREISYAIKNIHGIRTGLFTPDMAFETIVKKQVKKIREPCLKCVDMVISELISTVRQCTKKLQQYPRLREEMERIVTTHIREREGRTKEQVMLLIDIELAYMNTNHEDFIGFANAQQRSNQMNKKKTSGNQDEILVIRKGWLTINNIGIMKGGSKEYWFVLTAENLSWYKDDEEKEKKYMLSVDNLKLRDVEKGFMSSKHIFALFNTEQRNVYKDYRQLELACETQEEVDSWKASFLRAGVYPERVGDKEKASETEENGSDSFMHSMDPQLERQVETIRNLVDSYMAIVNKTVRDLMPKTIMHLMKNNTKEFIFSELLANLYSCGDQNTLMEESAEQAQRRDEMLRMYHALKEALSIIGDINTTTVSTPMPPPVDDSWLQVQSVPAGRRSPTSSPTPQRRAPAVPPARPGSRGPAPGPPPAGSALGGAPPVPSRPGASPDPFGPPPQVPSRPNRAPPGVPSRSGQASPSRPESPRPPFDL
# Tests used:
# [1] = test system: lysosomes; test: Lysosomal leakage assay using Lucifer Yellow in podocytes; format: cell-based, mouse
# From the text: Next the reason for the relocalization of CatL in LPS treated podocytes was examined. To examine the possibility of lysosomal leakage, the localization of Lucifer Yellow, a cellular dye that is readily taken up into lysosomes was examined.
# [2] = test system: podocytes; test: Scrape wound (wound healing) assay of podocytes; format: cell-based, mouse; details: pretreatment 24 h; untreated cells 31%
# Method: Functionally, lipid raft-associated uPAR has been implicated in cell migration (21). The motility of cultured podocytes was analyzed to explore the consequences of increased uPAR expression in lipid rafts. First, podocyte cell lines were established with stable knock down of uPAR expression using siRNA. The efficiency of uPAR-siRNA was confirmed by both semi-quantitative RT-PCR (>90% inhibition) and Western blotting (>70%) (FIG. 12A). A modified multi-well Boyden chamber assay was used to assess the random migration of differentiated podocytes. […] To test whether this effect was mediated by uPAR, uPAR knock-down studies were performed by stably transfecting uPAR-siRNA into podocytes. […] The distance from the wound margin migrated by cells was related to the total distance of the scar and expressed as percentage closure 12 h after post-wound incubation. […]
# To study the directional movement of podocytes, wound healing assay was performed. […] The cell migratory distance was calculated by averaging the distance from the wound edge to the DAPI-labeled nucleus of the maximally migrated cell in five distinct border zones. The percentage of closure was calculated as migratory distance from both sides versus initial wound track width.
# [3] = test system: CatL; test: Cathepsin activity in LPS-treated podocytes with fluorogenic substrate CV-(FR)2; format: cell-based, mouse; details: after LPS administration
# From the text: (§1) Finally, it was examined whether CatL can be enzymatically active in the cytosol. Subcellular sites of CatL and CatB activity were visualized by a fluorogenic substrate, CV-(FR)2, which emits light upon cleavage by CatL. In untreated podocytes, protease activity was low and confined to perinuclear lysosomes (FIG. 17F).
# [4] = molecular target: T1, CatB (Mus musculus, UniProt P10605); test: Cathepsin activity in podocytes with fluorogenic substrate CV-(FR)2, CatB; format: cell-based
# T1 construct: endogenous in cells; host or cells: cultured mouse podocytes
# T1 sequence (P10605 80-333): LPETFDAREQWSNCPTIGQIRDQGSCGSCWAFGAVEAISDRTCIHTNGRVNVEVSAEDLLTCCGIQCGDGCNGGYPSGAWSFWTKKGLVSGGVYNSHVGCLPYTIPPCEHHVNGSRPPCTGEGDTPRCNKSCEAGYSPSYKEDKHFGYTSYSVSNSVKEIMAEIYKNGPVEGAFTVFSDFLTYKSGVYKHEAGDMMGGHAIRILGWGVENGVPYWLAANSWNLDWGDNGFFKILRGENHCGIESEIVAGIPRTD
# From the text: as §1
# [5] = test system: cathepsin L; test: Generation of dynamin p40 fragment in LPS-treated cultured podocytes (Western blot); format: cell-based, mouse; details: LPS-treated podocytes expressing dynWT
# From the text: Next, it was examined whether cathepsin L could process dynamin in vivo, and whether this processing required GTP binding by dynamin. To this end, cultured podocytes were infected with adenoviruses expressing dynWT as well as different dynamin mutants. Infected podocytes were subsequently treated with LPS. LPS treatment increases cathepsin L presence and the activity in the cytosol (FIG. 3), and thus is expected to induce generation of the 40 kD proteolytic fragment. Respective cytosols were probed using the GTPase antibodies in order to detect N-terminal 40 kD proteolytic fragment. Expression of dynWT in podocytes treated with LPS identified proteolytic fragments that traveled with the same mobility as fragments observed in vitro. […] Furthermore, significant amount of p40 was present in cells expressing dynR725A prior to LPS treatment. […] Given complete protection of cathepsin L cleavage by GTPγS, it was reasoned that LPS treatment was somehow inducing dynR725A self-assembly, which in turn was protecting dynR725A from cathepsin L cleavage. This in turn would explain ability of dynR725A to counteract LPS and PAN treatment (FIG. 1D). […] Biochemical difference between dynWT, dynK694A and dynR725A is that only dynR725A is impaired in the rate of GTP-hydrolysis of assembled dynamin. This is important because GTP-hydrolysis drives disassemble of dynamin. Thus, while all three dynamins are predicted to self-assemble by LPS treatment, only dynR725A will stay assembled due to its inability to hydrolyze GTP. Once assembled dynWT and dynK694A hydrolyze GTP they will fall apart and thus become accessible for cathepsin L cleavage.
# To explore CatL-mediated dynamin cleavage in vivo, cultured podocytes were infected with adenoviruses encoding different dynamin mutants and subsequently treated with LPS (FIG. 19G). […] To confirm the identity of the cleavage site, the ELSGGA (SEQ ID NO.29) sequence was mutated to EQSVGA (SEQ ID NO.31) (for simplicity, the mutant is subsequently referred to as dynL356Q). […] Finally, a GTPase-defective dynamin mutant was examined. Dynamin carrying a mutation in its […] (dynR725A) oligomerizes, but is impaired in assembly-stimulated GTP-hydrolysis. DynR725A is therefore predicted to live longer in the assembled state.
# Podocytes were grown under non-permissive conditions to 70% confluence. Cells were washed twice with 1×PBS and infected with 1.2 ml of serum-free DMEM media containing 100 μl transactivator virus, 100 μl virus expressing dyn1 or dyn2. After 2 h of infection at 37° C., media containing virus was replaced with full DMEM. If cells were treated with LPS or PAN, 50 μg/ml of LPS or 50 μg/ml PAN was added at this point. 18-24 h post-infection, cells were detached using trypsin and processed either for subcellular fractionation or tested in the motility assays as described in (Reiser et al., J Biol Chem 279, 34827-34832 (2004)). When stated, 20 μM of Z-FF-FMK CatL specific inhibitor (Calbiochem, San Diego, Calif.) was added simultaneously with addition of LPS.
# [6] = test system: dynamin; test: Dynamin self-assembly, apparent affinity measured in vitro; format: biochemical
# From the text: The fact that this significant decrease in the fluorescence lifetime of ECFP is statistically insignificant is due to high fluctuations of the lifetimes between different cells (high error bar in Table 3). This is most likely due to ability of dynK694A to overcome its assembly defect under certain circumstances as shown in vitro. The fact that ECFP-dynK694A has a faster lifetime than ECFP-dynI690K is in agreement with its less severe assembly defect measured in vitro (apparent affinity of dynK694A is ˜7-fold lower then dynWT, whereas it is unmeasurable for dynI690K).
# [7] = test system: dynamin-dynamin interactions; test: FLIM analysis of dynamin-dynamin interactions (self-assembly) in podocytes; format: cell-based, mouse; details: Table 4; donor GTPase-a488, acceptor Hudy1-a568; in ps
# Method: In one embodiment the cell-based assay to monitor dynamin-dynamin interactions is performed on a cultured mouse podocyte cell line and the readout of dynamin self-assembly using fluorescence lifetime imaging microscopy (FLIM). FLIM is based on the fluorescence resonance energy transfer (FRET) between the donor and acceptor that shortens the lifetime of the donor if the acceptor distance is within ≈100 Å (10 nm). […] The assay is based on overexpressing dynamin in podocytes, and subsequently staining fixed cells with monoclonal anti-dynamin antibodies that have been conjugated with donor or acceptor florophores. In one embodiment of the invention, Alexa-488 is used as the donor florophore and Alexa-568 is used as the acceptor florophore. In yet another embodiment the donor florophore is dynamin conjugated enhanced-cyan fluorescence protein (ECFP) and the acceptor is dynamin conjugated enhanced yellow-fluorescence protein (EYFP). It will be appreciated by the person of ordinary skill in the art that numerous combinations of FRET donor and acceptors can be used, which are readily available and known. In one embodiment, the FLIM assay is carried out in COS cells and the donor can be selected from the list consisting of: ECFP-WT, ECFP-1690K, ECFP-K44A, ECFP-K694A, and the -acceptor can be selected from the list consisting of: EYFP, EYFP-WT, EYFP-K44A, EYFP-1690K, EYFP-K694A. In yet another embodiment the FLIM assay is performed in podocytes and the donor is GTPase-Alexa488 and the acceptor is selected from the list consisting of: DAM-Alexa568, GTPase-Alexa568, and Hudyl-Alexa568. Cells are stained by mixing both donor and acceptor florophores in equal amounts, and examining the spatially-restricted lifetime shortening in cells detects the localization of dynamin-dynamin interactions in cells. Since dynamin-dynamin interactions are vital for the function of the podocyte, it will be appreciated by the person of ordinary skill in the art that this assay can now be used to screen peptides, small molecules or drugs which can affect these molecular interactions. For example such molecules are cytocholasin D, jasplakinolide, colchisine, dynK44A, dynK694A, dynWT, dynI690K, dynR725A (SEQ ID NO.4), dynL356Q, G358V, (SEQ ID NO.3) any combination thereof, etc.
# In order to test the hypothesis that self-assembly of dynamin was protecting its cathepsin L processing in cultured podocytes, dynamin self-assembly in live cells was examined using fluorescence lifetime imaging microscopy (FLIM). FLIM is based on the fluorescence resonance energy transfer (FRET) between the donor and the acceptor that shortens the lifetime of the donor if the acceptor distance is within ≈100 Å (10 nm). […] A FLIM-assay was developed that specifically detects dynamin self-assembly into the higher order structures in podocytes. The assay is based on overexpressing dynamin in podocytes, and subsequently staining fixed cells with monoclonal anti-dynamin antibodies that have been conjugated with either Alexa-488 (donor florophore) or Alexa-568 (acceptor florophore). Cells are stained by mixing both florophores in equal amounts, and examining lifetime of Alexa-488. […] Importantly, FRET only occurred in the vicinity of the membrane. […] Thus, both dominant activating mutants, dynK694A and dynR725A, are impaired for assembly into a supramolecular structures in podocytes under normal conditions. […] Loss of FRET measured FLIM correlates with the loss of p40 proteolytic fragment in cultured podocytes. And presence of p40 in cells expressing dynR725A under normal conditions correlates with the lack of dynR725A assembly detected by FLIM. The opposite is true for the dynWT; lack of p40 under control conditions when FLIM is present, and appearance of the p40 upon LPS treatment with no measurable FRET. […] Finally, proteolytic processing of dynamin after LPS treatment is also observed in vivo. […]
molecule,measurement,setting,value
CCCCCCCCCCCCC/C=C/[C@@H](O)[C@@H](N)CO [sphingosine],"lysosomal integrity (Lucifer Yellow), in words",[1],led to the expected lysosomal rupture
"CN(C)c1ncnc2c1ncn2[C@@H]1O[C@H](CO)[C@@H](N)[C@H]1O [PAN, puromycin aminonucleoside]",percentage closure 12 h after post-wound incubation,[2],63%
"O=C(NC(Cc1ccccc1)C(=O)NC(Cc1ccccc1)C(=O)CF)OCc1ccccc1 (stereo not drawn) [Z-FF-FMK, Z-Phe-Phe-fluoromethyl ketone, reference compound] (Cbz-Phe-Phe-CH2F; configuration not given here)","extralysosomal cathepsin activity, in words",[3],vast majority of extralysosomal cathepsin activity after LPS administration was sensitive
same,"inhibition of CatB, in words",[4],does not inhibit CatB
same,"dynamin cleavage / p40 generation with inhibitor, in words",[5],resulted specifically in the loss of p40; also recorded: inhibited
B1,"apparent affinity for self-assembly, fold lower than dynWT",[6],unmeasurable
same,Mean Lifetime (γ1),[7],2359 ± 120
